Measurements: US12491227B2, “Crila® and EGCG compositions for treatment of fibroids” (Altin Biosciences Corporation, priority 2022, dated 2025)

Assays:
[1] = test system: Human uterine leiomyoma (HuLM) cells; assay: MTT cell proliferation / viability assay in HuLM cells; type: cell-based; conditions: EGCG alone
Experimental: Effect of Crila® or a Crila® composition (Table 1) and/or EGCG on the Uterine Fibroid Growth: In one study, we used Human Leiomyoma (HuLM) Cells in our initial evaluation of Crila® and/or EGCG treatment. Crila®, used alone or in combination with EGCG, were evaluated for their ability to inhibit the proliferation of HuLM cells in an experimental approach as described below. Similarly, the Crila® compositions are evaluated for their ability to inhibit the proliferation of HuLM cells in an experimental approach as described below. Crila® and/or EGCG were analyzed at the various concentrations and time points specified. […] Thereafter, the extract was sterile filtered through 0.22 μm PES filter and stored at room temperature until further use. EGCG was dissolved in DMSO to make a 100 mM stock solution or in dH2O to make 10 mM stock solution. Cell proliferation assay was performed by dimethylthiazolyl diphenyltetrazolium bromide (MTT) assay. Human uterine leiomyoma (HuLM) cells were cultured in DMEM/F12 containing 10% fetal bovine serum. […] Samples were measured (from the treated wells and control wells) after 1 to 2 days, 3 days, 5 days and 7 days. […] Relative cell viability was determined by using the MTT assay. […] Absorbance was measured in Varioskan Lux microplate reader (ThermoFisher) at 570 nm. […]

BMP2 gene = conditions: EGCG-treated human fibroid cells; cited from earlier work
TGF-β3 = conditions: human fibroid cells; cited from earlier work
[2] = molecular target: T1, Catechol-O-methyl transferase (COMT) (Homo sapiens, UniProt P21964); conditions: cited from earlier work
T1 sequence (P21964 1-271): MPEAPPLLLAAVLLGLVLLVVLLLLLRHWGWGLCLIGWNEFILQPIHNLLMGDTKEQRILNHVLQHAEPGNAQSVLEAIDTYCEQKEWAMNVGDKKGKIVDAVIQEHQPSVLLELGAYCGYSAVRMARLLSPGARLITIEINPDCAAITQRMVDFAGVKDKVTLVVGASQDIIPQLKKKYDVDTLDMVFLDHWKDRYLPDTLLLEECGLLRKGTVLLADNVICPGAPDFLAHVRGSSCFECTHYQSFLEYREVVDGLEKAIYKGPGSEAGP

fibroid tumor = conditions: nude mouse model; cited from earlier work

Compound: O=C(O[C@@H]1Cc2c(O)cc(O)cc2O[C@@H]1c1cc(O)c(O)c(O)c1)c1cc(O)c(O)c(O)c1 [EGCG, epigallocatechin gallate]
- concentration from which HuLM cells viability is effectively reduced ([1]; after 5 days treatment): ≥ 50 µM
- concentration from which HuLM cells viability is effectively reduced ([1]; after 7 days treatment): ≥ 25 µM
- increase in the expression of the BMP2 gene versus untreated control (BMP2 gene): 14 fold
- TGF-β3 production (TGF-β3): significantly decreased
- COMT inhibitor effect [2]: potent COMT inhibitor effect
- fibroid tumor formation in vivo (fibroid tumor): inhibiting fibroid tumor formation
